The values that follow are results of earlier work, collected in article PMC7866862, “Screening, Optimization, and Bioavailability Research of Natural Deep Eutectic Solvent Extracts from Radix Pueraria” (Molecules, 2021).

SMILES strings stand for the structures.

On the set-up of data set [1]: method as in PMID 28165806.
On the set-up of data set [2]: method as in PMID 30275390. As to conditions: oral, NSSPE study.

`O=c1c(-c2ccc(O)cc2)coc2c([C@@H]3O[C@H](CO)[C@@H](O)[C@H](O)[C@H]3O)c(O)ccc12` [PUE, 8-β-D-glucopyranose-4′,7-dihydroxyisoflavone]: the “Oral bioavailability of PUE” value in data set [1] is reported as “about 7%”. For the same compound, the “Cmax of PUE” value in data set [2] is given as 634.17 ng/mL.
